Converted amounts (≈) assume the structure as drawn. Read-outs that look alike come from different tables or passages of the source.
Tests used:
MRSA 18631 = test: Minimum inhibitory concentration (broth microdilution) and FIC index; type: cell-based, Staphylococcus aureus
Experimental: (§1) A serial of twofold dilution of the tested antibiotics (oxacillin, erythromycin, ampicillin, kanamycin, levofoxacin, vancomycin and doxycycline) was perform by Broth microdilution method to a final concentration of 2-512 μg/mL. The bacterial overnight culture was collected and re-suspended in the Muller-Hilton (M-H) broth. An aliquot of cell suspension (OD600=0.1) was prepared. The bacterial suspensions were plated in 96-well plate and incubated with test antibiotics at 37° C. in a 5% CO2 incubator (Table 1 to Table 4).
(§2) The […], […] and antagonism between two drugs was evaluated by the following formula:
(§3) [formula] The criteria of fractional inhibitory concentration index: […]

MRSA 18271 = test: as above; type: cell-based, Staphylococcus aureus
Experimental: as §1, §2, §3

MRSA 19615 = test: as above; type: cell-based, Staphylococcus aureus
Experimental: as §1, §2, §3

[1] = tested on: MSSA (Methicillin-susceptible Staphylococcus aureus); test: as above; type: cell-based
Experimental: as §1, §2, §3

[2] = tested on: standard MRSA strain (ATCC 33591); test: Minimum inhibitory concentration (broth microdilution); type: cell-based, Staphylococcus aureus; settings: Staphylococcus aureus, Table 1
Experimental: as §1

[3] = Staphylococcus aureus, MRSA, Table 1, MRSA 18631, read-out: Minimum inhibitory concentration
[4] = Staphylococcus aureus, MRSA, Table 2, 18631, with TG II 30 μg/mL, read-out: MIC
[5] = Staphylococcus aureus, MRSA, Table 2, 18631, with TG II 40 μg/mL, read-out: MIC
[6] = Staphylococcus aureus, MRSA, Table 2, 18631, without TG II, read-out: MIC
[7] = Staphylococcus aureus, MRSA, Table 3, 18631, Tellimagrandin II (40 μg/ml) −, read-out: MIC
[8] = Table 2, 18631, with TG II 30 μg/mL
[9] = Table 2, 18631, with TG II 40 μg/mL
[10] = Table 3, 18631, Tellimagrandin II (40 μg/ml) +
[11] = Staphylococcus aureus, MRSA, Table 1, MRSA 18271, read-out: Minimum inhibitory concentration
[12] = Staphylococcus aureus, MRSA, Table 2, 18271, with TG II 30 μg/mL, read-out: MIC
[13] = Staphylococcus aureus, MRSA, Table 2, 18271, with TG II 40 μg/mL, read-out: MIC
[14] = Staphylococcus aureus, MRSA, Table 2, 18271, without TG II, read-out: MIC
[15] = Staphylococcus aureus, MRSA, Table 3, 18271, Tellimagrandin II (40 μg/ml) −, read-out: MIC
[16] = Table 2, 18271, with TG II 30 μg/mL
[17] = Table 2, 18271, with TG II 40 μg/mL
[18] = Table 3, 18271, Tellimagrandin II (40 μg/ml) +
[19] = Staphylococcus aureus, MRSA, Table 1, MRSA 19615, read-out: Minimum inhibitory concentration
[20] = Staphylococcus aureus, MRSA, Table 2, 19615, with TG II 30 μg/mL, read-out: MIC
[21] = Staphylococcus aureus, MRSA, Table 2, 19615, with TG II 40 μg/mL, read-out: MIC
[22] = Staphylococcus aureus, MRSA, Table 2, 19615, without TG II, read-out: MIC
[23] = Staphylococcus aureus, MRSA, Table 3, 19615, Tellimagrandin II (40 μg/ml) −, read-out: MIC
[24] = Table 2, 19615, with TG II 30 μg/mL
[25] = Table 2, 19615, with TG II 40 μg/mL
[26] = Table 3, 19615, Tellimagrandin II (40 μg/ml) +
[27] = Staphylococcus aureus, MSSA, Table 1, MSSA, read-out: Minimum inhibitory concentration
[28] = Staphylococcus aureus, MSSA, Table 2, Non-drug resistant Staphylococcus aureus, with TG II 30 μg/mL, read-out: MIC
[29] = Staphylococcus aureus, MSSA, Table 2, Non-drug resistant Staphylococcus aureus, without TG II, read-out: MIC
[30] = Staphylococcus aureus, MSSA, Table 3, MSSA, Tellimagrandin II (40 μg/ml) −, read-out: MIC
[31] = Table 2, Non-drug resistant Staphylococcus aureus, with TG II 30 μg/mL
[32] = Table 3, MSSA, Tellimagrandin II (40 μg/ml) +

Structure (SMILES)	MIC (MRSA 18631; [3]) [µg/mL]	MIC (MRSA 18631; [4]) [µg/mL]	MIC (MRSA 18631; [5]) [µg/mL]	MIC (MRSA 18631; [6]) [µg/mL]	MIC (MRSA 18631; [7]) [µg/mL]	FIC (MRSA 18631; [8])	FIC (MRSA 18631; [9])	FIC (MRSA 18631; [10])	MIC (MRSA 18631; [10]) [µg/mL]	MIC (MRSA 18271; [11]) [µg/mL]	MIC (MRSA 18271; [12]) [µg/mL]	MIC (MRSA 18271; [13]) [µg/mL]	MIC (MRSA 18271; [14]) [µg/mL]	MIC (MRSA 18271; [15]) [µg/mL]	FIC (MRSA 18271; [16])	MIC (MRSA 19615; [19]) [µg/mL]	MIC (MRSA 19615; [23]) [µg/mL]	MIC [1, 27] [µg/mL]	MIC [1, 30] [µg/mL]	MIC [2] [µg/mL]	other results
C[C@H]1c2cccc(O)c2C(=O)C2=C(O)[C@]3(O)C(=O)C(C(N)=O)=C(O)[C@@H](N(C)C)[C@@H]3[C@@H](O)[C@@H]21 [Doxycycline]	256	2	2	256	256	0.008	0.008	0.008	2	> 512	2	2	512	512	0.004	> 512	512	128	128	64 (≈ 144 µM)	FIC (MRSA 18271; [17]): 0.004; FIC (MRSA 18271; [18]): 0.004; MIC (MRSA 18271; [18]): 2 µg/mL; MIC (MRSA 19615; [20]): 16 µg/mL; MIC (MRSA 19615; [21]): 8 µg/mL; MIC (MRSA 19615; [22]): 512 µg/mL; FIC (MRSA 19615; [24]): 0.031; FIC (MRSA 19615; [25]): 0.016; FIC (MRSA 19615; [26]): 0.016; MIC (MRSA 19615; [26]): 8 µg/mL; MIC [1, 28]: 16 µg/mL; MIC ([1]; Staphylococcus aureus, MSSA, Table 2, Non-drug resistant Staphylococcus aureus, with TG II 40 μg/mL, read-out: MIC): 8 µg/mL; MIC [1, 29]: 128 µg/mL; FIC [1, 31]: 0.125; FIC ([1]; Table 2, Non-drug resistant Staphylococcus aureus, with TG II 40 μg/mL): 0.016; FIC [1, 32]: 0.063; MIC [1, 32]: 8 µg/mL
C[C@H]1COc2c(N3CCN(C)CC3)c(F)cc3c(=O)c(C(=O)O)cn1c23 [Levofloxacin]	> 512	512	512	> 512	256	1	1	2.00	512	> 512	512	512	> 512	512	1	> 512	512	> 512	512	32 (≈ 88.6 µM)	FIC (MRSA 18271; [17]): 1; FIC (MRSA 18271; [18]): 1.00; MIC (MRSA 18271; [18]): 512 µg/mL; MIC (MRSA 19615; [20]): 512 µg/mL; MIC (MRSA 19615; [21]): 512 µg/mL; MIC (MRSA 19615; [22]): > 512 µg/mL; FIC (MRSA 19615; [24]): 1; FIC (MRSA 19615; [25]): 1; FIC (MRSA 19615; [26]): 1.00; MIC (MRSA 19615; [26]): 512 µg/mL; MIC [1, 28]: 8 µg/mL; MIC [1, 29]: > 512 µg/mL; FIC [1, 31]: 0.016; FIC [1, 32]: 1.00; MIC [1, 32]: 512 µg/mL
NC[C@H]1O[C@H](O[C@H]2[C@H](O)[C@@H](O[C@H]3O[C@H](CO)[C@@H](O)[C@H](N)[C@H]3O)[C@H](N)C[C@@H]2N)[C@H](O)[C@@H](O)[C@@H]1O [Kanamycin]	> 512				512					> 512				512		> 512	512	> 512	512	> 512	

Source: patent US8975234B2, “Anti-bacterial infection, inflammation, and leukemia composition and use thereof” (priority 2011, dated 2015)
